Experimental data published in patent US20250270246A1, “LINCOSAMIDES AND USES THEREOF” (President and Fellows of Harvard College, priority 2022, published 2025).
Structures can show the parent of a compound that is named as a salt. Where two headings read alike, the source gives them in different places.

How the values were obtained:
Test in all cases: MIC by broth microdilution (CLSI)
Format in all cases: cell-based
[1] = system: E. faecalis ATCC 29212 (HAV#005); details: Enterococcus faecalis, ATCC29212, 24 h, read-out: MIC E. faecalis ATCC 29212
Protocol: (§1) Minimum inhibitory concentrations (MICs) were determined by the broth microdilution method following the Clinical and Laboratory Standards Institute (CLSI) guidelines. Test organisms consisted of standard reference strains from the American Type Culture Collection (ATCC; Manassa, VA, USA) and clinical isolates obtained from JMI Laboratories Inc. (North Liberty, IA, USA), Micromyx repository (MMX; Kalamazoo, MI, USA), and Massachusetts Eye and Ear Hospital (Boston, USA). Before the start of the MIC experiment, standard and test compound stock solutions were prepared in dimethyl sulfoxide (DMSO, Aldrich D2650) at a stock concentration of 2,560 μg/mL. The compound concentration range typically employed for each experiment was 64-0.06 μg/mL (2.5% final DMSO concentration). Iboxamycin was used as a comparator in all experiments. All bacterial strains were sub-cultured on blood agar plates (tryptic soy agar with 5% sheep blood, Hardy Diagnostics) and incubated overnight at 35° C. Organisms were suspended in cation-adjusted Mueller-Hinton broth (CaMHB, BD 212322) and optical density was adjusted to 0.5 McFarland standard. Suspensions were further diluted to obtain a final inoculum of 5×10^5 CFU/mL for broth microdilution experiments. The minimum concentration of compound required to inhibit visible bacterial growth after 24 h of incubation was recorded as the MIC in μg/mL. MICs for P. aeruginosa were recorded in cation-adjusted Mueller-Hinton broth which had been pre-treated with Chelex 100 ion exchange resin according to procedures reported in Ito et al. Antimicrob Agents Chemother (2016) 60 (12), 7396-7401.

[2] = system: E. coli ΔtolC; details: Escherichia coli, 24 h, read-out: MIC E. coli ΔtolC, ΔtolC; CaMHB, 24 h incubation
Protocol: as §1

[3] = system: S. aureus MMX 3035; details: Staphylococcus aureus, MMX3035, 24 h, read-out: MIC S. aureus MMX 3035
Protocol: as §1

[4] = system: K. pneumoniae JMI-991193; details: Klebsiella pneumoniae, JMI991193, 24 h, read-out: MIC K. pneumoniae JMI-991193
Protocol: as §1

[5] = system: E. coli lptD mutant; details: Escherichia coli, 24 h, read-out: MIC E. coli lptD mutant, lptD mutant / ΔlptD mutant; CaMHB, 24 h incubation
Protocol: as §1

[6] = system: A. baumannii ATCC 19606 (HAV#010); details: Acinetobacter baumannii, ATCC19606, 24 h, read-out: MIC A. baumannii ATCC 19606
Protocol: as §1

[7] = system: S. aureus Clinical (cfr); details: Staphylococcus aureus, 24 h, read-out: MIC S. aureus Clinical (cfr)
Protocol: as §1

[8] = system: S. aureus ATCC 29213 (HAV#001); details: Staphylococcus aureus, ATCC29213, 24 h, read-out: MIC S. aureus ATCC 29213
Protocol: as §1

[9] = system: E. faecium JMI-990536; details: Enterococcus faecium, JMI990536, 24 h, read-out: MIC E. faecium JMI-990536
Protocol: as §1

[10] = system: E. coli ATCC 25922 (HAV#006); details: Escherichia coli, ATCC25922, 24 h, read-out: MIC E. coli ATCC 25922
Protocol: as §1

[11] = HAV#005, ATCC 29212, CaMHB, 24 h incubation
[12] = MMX 3035, CaMHB, 24 h incubation
[13] = JMI-991193, CaMHB, 24 h incubation
[14] = HAV#010, ATCC 19606, CaMHB, 24 h incubation
[15] = Clinical (cfr), CaMHB, 24 h incubation
[16] = HAV#001, ATCC 29213, CaMHB, 24 h incubation
[17] = JMI-990536, CaMHB, 24 h incubation
[18] = HAV#006, ATCC 25922, CaMHB, 24 h incubation

| SMILES | MIC [1] | MIC [2] | MIC [3] | MIC [4] | MIC [5] | MIC [6] | MIC [7] | MIC [8] | MIC [9] | MIC [10] | MIC [1, 11] | MIC [3, 12] | MIC [4, 13] | MIC [6, 14] | MIC [7, 15] | MIC [8, 16] | MIC [9, 17] | MIC [10, 18] |
| --- | --- | --- | --- | --- | --- | --- | --- | --- | --- | --- | --- | --- | --- | --- | --- | --- | --- | --- |
| CC(C)C[C@@H]1CCO[C@@H]2[C@H](CN[C@@H]2C(=O)N[C@@H]2C/C=C\C[C@@H](c3cn(-c4ccc(F)cc4)nn3)S[C@H]3O[C@H]2[C@H](O)[C@H](O)[C@H]3O)C1 [FSA1608021, (4S,5aS,8S,8aR)—N-((1R,3S,8R,9R,10R,11S,12R,Z)-3-(1-(4-fluorophenyl)-1H-1,2,3-triazol-4-yl)-10,11,12-trihydroxy-13-oxa-2-thiabicyclo[7.3.1]tridec-5-en-8-yl)-4-isobutyloctahydro-2H-oxepino[2,3-c]pyrrole-8-carboxamide formate salt] | 0.5 µg/mL | 1 µg/mL | 2 µg/mL | 4 µg/mL | 0.25 µg/mL | 4 µg/mL | 4 µg/mL | 0.5 µg/mL | 0.5 µg/mL | 1 µg/mL |  |  |  |  |  |  |  |  |
| CC(C)C[C@@H]1CCO[C@@H]2[C@H](CN[C@@H]2C(=O)N[C@H]2[C@H]3O[C@H](S[C@H](c4cn(-c5ccc(F)cc5F)nn4)C/C=C\[C@H]2C)[C@H](O)[C@@H](O)[C@H]3O)C1 [FSA1609052, (4S,5aS,8S,8aR)—N-((1R,3S,7R,8R,9R,10R,11S,12R,Z)-3-(1-(2,4-difluorophenyl)-1H-1,2,3-triazol-4-yl)-10,11,12-trihydroxy-7-methyl-13-oxa-2-thiabicyclo[7.3.1]tridec-5-en-8-yl)-4-isobutyloctahydro-2H-oxepino[2,3-c]pyrrole-8-carboxamide formate salt] | 0.25 µg/mL | 0.125 µg/mL | 0.5 µg/mL | 4 µg/mL | 0.125 µg/mL | 1 µg/mL | 0.5 µg/mL | 0.25 µg/mL | 0.5 µg/mL | 2 µg/mL |  |  |  |  |  |  |  |  |
| CC(C)C[C@@H]1CCO[C@@H]2[C@H](CN[C@@H]2C(=O)N[C@@H]2C/C=C/[C@H](CO)CSC3O[C@H]2C(O)C(O)[C@H]3O)C1 (single isomer, unassigned) [FSA1608025B, formate salt] |  | > 64 µg/mL |  |  | > 64 µg/mL |  |  |  |  |  | 32 µg/mL | > 64 µg/mL | > 64 µg/mL | > 64 µg/mL | > 64 µg/mL | 32 µg/mL | 32 µg/mL | > 64 µg/mL |
| CC(C)C[C@@H]1CCO[C@@H]2[C@H](CN[C@@H]2C(=O)N[C@@H]2C/C=C\C[C@@H](CN3CCOCC3)S[C@H]3O[C@H]2[C@H](O)[C@H](O)[C@H]3O)C1 [FSA1607019, (4S,5aS,8S,8aR)-4-isobutyl-N-((1R,3S,8R,9R,10R,11S,12R,Z)-10,11,12-trihydroxy-3-(morpholinomethyl)-13-oxa-2-thiabicyclo[7.3.1]tridec-5-en-8-yl) octahydro-2H-oxepino[2,3-c]pyrrole-8-carboxamide formate salt] |  | 0.25 µg/mL |  |  | 0.5 µg/mL |  |  |  |  |  | 2 µg/mL | 8 µg/mL | > 64 µg/mL | 32 µg/mL | 16 µg/mL | 4 µg/mL | 4 µg/mL | 4 µg/mL |
